Measurements: publication PMC9067983, “Identification of highly selective type II kinase inhibitors with chiral peptidomimetic tails” (Journal of Enzyme Inhibition and Medicinal Chemistry, 2022)
Where a SMILES comes first, the peptide text is derived from it. [ ]: non-standard residue; d: D form. The star is where a group is joined. X1 = Cc1ccc(Nc2ncc3c(n2)N(C)C(=O)N(c2cc(C(=O)*)ccc2C)C3)cn1; Aze = O=C(O)[C@@H]1CCN1; Nva = CCC[C@H](N)C(=O)O; Ac3c = NC1(C(=O)O)CC1; Aib = CC(C)(N)C(=O)O

How the values were obtained:
[1] = molecular target: T1, c-Src (Homo sapiens, UniProt P12931); assay: In vitro kinase assay (IC50); format: biochemical
T1 construct: purchased Reaction Biology Corp
T1 sequence (P12931 whole entry): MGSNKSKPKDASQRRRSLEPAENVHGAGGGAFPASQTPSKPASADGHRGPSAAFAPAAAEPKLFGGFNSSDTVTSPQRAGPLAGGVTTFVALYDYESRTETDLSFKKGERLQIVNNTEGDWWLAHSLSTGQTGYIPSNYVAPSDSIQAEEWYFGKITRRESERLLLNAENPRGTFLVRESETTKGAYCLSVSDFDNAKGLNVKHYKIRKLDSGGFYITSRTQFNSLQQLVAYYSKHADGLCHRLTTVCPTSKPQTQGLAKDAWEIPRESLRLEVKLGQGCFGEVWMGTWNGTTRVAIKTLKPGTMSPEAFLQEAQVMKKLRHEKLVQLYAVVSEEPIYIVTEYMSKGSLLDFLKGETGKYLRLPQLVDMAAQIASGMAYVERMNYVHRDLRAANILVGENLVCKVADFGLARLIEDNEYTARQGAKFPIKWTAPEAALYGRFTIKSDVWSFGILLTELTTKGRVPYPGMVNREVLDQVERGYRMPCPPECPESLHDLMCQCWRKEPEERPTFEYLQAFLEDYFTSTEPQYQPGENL
Description: (§1) Full panel kinase profiling and kinase IC50 measurement were performed by using Reaction Biology Corp. (San Diego, USA).

[2] = molecular target: T2, Lck (Homo sapiens, UniProt P06239); assay: In vitro kinase assay (IC50); format: biochemical
T2 construct: purchased Reaction Biology Corp
T2 sequence (P06239 whole entry): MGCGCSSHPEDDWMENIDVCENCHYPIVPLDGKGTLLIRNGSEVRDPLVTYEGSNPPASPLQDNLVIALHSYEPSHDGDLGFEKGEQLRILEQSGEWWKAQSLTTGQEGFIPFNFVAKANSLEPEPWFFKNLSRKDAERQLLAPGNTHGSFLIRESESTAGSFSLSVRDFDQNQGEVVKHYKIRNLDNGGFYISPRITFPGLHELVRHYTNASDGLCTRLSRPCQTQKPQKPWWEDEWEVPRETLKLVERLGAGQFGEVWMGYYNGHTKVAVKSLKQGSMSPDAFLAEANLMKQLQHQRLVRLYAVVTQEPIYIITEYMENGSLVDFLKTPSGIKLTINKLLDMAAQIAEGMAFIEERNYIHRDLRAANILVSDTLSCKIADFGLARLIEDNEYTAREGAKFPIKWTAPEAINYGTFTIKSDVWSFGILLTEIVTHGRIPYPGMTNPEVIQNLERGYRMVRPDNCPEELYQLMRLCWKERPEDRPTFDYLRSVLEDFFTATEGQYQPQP
Description: as §1

| Structure (SMILES) | IC50 [1] | IC50 [2] | decrease of Lck/c-Src selectivity compared to 7a [2] | selectivity for Lck over c-Src [2] |
| --- | --- | --- | --- | --- |
| Cc1ccc(Nc2ncc3c(n2)N(C)C(=O)N(c2cc(C(=O)N[C@@H](C)C(=O)N4CCC[C@H]4C(=O)NC(C)(C)C(=O)N[C@H](C(=O)N(C)C)C(C)C)ccc2C)C3)cn1 [7m, (S)-N-(1-(((S)-1-(dimethylamino)-3-methyl-1-oxobutan-2-yl)amino)-2-methyl-1-oxopropan-2-yl)-1-((4-methyl-3-(1-methyl-7-((6-methylpyridin-3-yl)amino)-2-oxo-1,4-dihydropyrimido[4,5-d]pyrimidin-3(2H)-yl)benzoyl)-L-alanyl)pyrrolidine-2-carboxamide] (X1-AP[Aib]V-NMe2) | 3970 nM | 379 nM | – | – |
| C=CCN1C(=O)[C@H](CC(C)C)N=C(c2ccccc2)c2ccc(C(=O)Nc3ccc(C)c(N4Cc5cnc(Nc6ccc(C)nc6)nc5N(C)C4=O)c3)cc21 [11i, (S)-1-allyl-3-isobutyl-N-(4-methyl-3-(1-methyl-7-((6-methylpyridin-3-yl)amino)-2-oxo-1,4-dihydropyrimido[4,5-d]pyrimidin-3(2H)-yl)phenyl)-2-oxo-5-phenyl-2,3-dihydro-1H-benzo[e][1,4]diazepine-8-carboxamide] | 222 nM | 49.3 nM | – | – |
| Cc1ccc(Nc2ncc3c(n2)N(C)C(=O)N(c2cc(C(=O)N[C@@H](Cc4ccccc4)C(=O)N4CCC[C@H]4C(=O)NC(C)(C)C(=O)N[C@H](C(=O)N(C)C)C(C)C)ccc2C)C3)cn1 [7l, (S)-N-(1-(((S)-1-(dimethylamino)-3-methyl-1-oxobutan-2-yl)amino)-2-methyl-1-oxopropan-2-yl)-1-((4-methyl-3-(1-methyl-7-((6-methylpyridin-3-yl)amino)-2-oxo-1,4-dihydropyrimido[4,5-d]pyrimidin-3(2H)-yl)benzoyl)-L-phenylalanyl)pyrrolidine-2-carboxamide] (X1-FP[Aib]V-NMe2) | 1740 nM | 155 nM | – | – |
| Cc1ccc(Nc2ncc3c(n2)N(C)C(=O)N(c2cc(C(=O)N[C@@H](C(=O)N4CCC[C@@H]4C(=O)NC(C)(C)C(=O)N[C@H](CC(C)C)C(=O)N(C)C)C(C)C)ccc2C)C3)cn1 [7c, (R)-N-(1-(((R)-1-(dimethylamino)-4-methyl-1-oxopentan-2-yl)amino)-2-methyl-1-oxopropan-2-yl)-1-((4-methyl-3-(1-methyl-7-((6-methylpyridin-3-yl)amino)-2-oxo-1,4-dihydropyrimido[4,5-d]pyrimidin-3(2H)-yl)benzoyl)-D-valyl)pyrrolidine-2-carboxamide] (X1-[dV][dP][Aib][dL]-NMe2) | 735 nM | 211 nM | > 10 fold | – |
| Cc1ccc(Nc2ncc3c(n2)N(C)C(=O)N(c2cc(C(=O)N[C@H](C(=O)N4CCC[C@H]4C(=O)NC4(C(=O)N[C@@H](CC(C)C)C(=O)N(C)C)CC4)C(C)C)ccc2C)C3)cn1 [7d, (S)-N-(1-(((S)-1-(dimethylamino)-4-methyl-1-oxopentan-2-yl)carbamoyl)cyclopropyl)-1-((4-methyl-3-(1-methyl-7-((6-methylpyridin-3-yl)amino)-2-oxo-1,4-dihydropyrimido[4,5-d]pyrimidin-3(2H)-yl)benzoyl)-L-valyl)pyrrolidine-2-carboxamide] (X1-VP[Ac3c]L-NMe2) | 555 nM | 49 nM | – | – |
| CC1=N[C@@H](Cc2ccccc2)C(=O)Nc2cc(C(=O)Nc3ccc(C)c(N4Cc5cnc(Nc6ccc(C)nc6)nc5N(C)C4=O)c3)ccc21 [11k, (S)-3-benzyl-5-methyl-N-(4-methyl-3-(1-methyl-7-((6-methylpyridin-3-yl)amino)-2-oxo-1,4-dihydropyrimido[4,5-d]pyrimidin-3(2H)-yl)phenyl)-2-oxo-2,3-dihydro-1H-benzo[e][1,4]diazepine-8-carboxamide] | 27.1 nM | 3.57 nM | – | – |
| Cc1ccc(Nc2ncc3c(n2)N(C)C(=O)N(c2cc(C(=O)N[C@@H](Cc4ccccc4)C(=O)N4CCC[C@@H]4C(=O)N[C@H](C(=O)N[C@H](C)c4ccccc4)C(C)C)ccc2C)C3)cn1 [7w, (R)-N-((S)-3-methyl-1-oxo-1-(((R)-1-phenylethyl)amino)butan-2-yl)-1-((4-methyl-3-(1-methyl-7-((6-methylpyridin-3-yl)amino)-2-oxo-1,4-dihydropyrimido[4,5-d]pyrimidin-3(2H)-yl)benzoyl)-L-phenylalanyl)pyrrolidine-2-carboxamide] | 585 nM | 129 nM | – | – |
| Cc1ccc(Nc2ncc3c(n2)N(C)C(=O)N(c2cc(C(=O)N[C@H](C(=O)N4CCC[C@@H]4C(=O)NC4(C(=O)N[C@@H](CC(C)C)C(=O)N(C)C)CC4)C(C)C)ccc2C)C3)cn1 [7e, (R)-N-(1-(((S)-1-(dimethylamino)-4-methyl-1-oxopentan-2-yl)carbamoyl)cyclopropyl)-1-((4-methyl-3-(1-methyl-7-((6-methylpyridin-3-yl)amino)-2-oxo-1,4-dihydropyrimido[4,5-d]pyrimidin-3(2H)-yl)benzoyl)-L-valyl)pyrrolidine-2-carboxamide] (X1-V[dP][Ac3c]L-NMe2) | 2080 nM | 129 nM | – | – |
| Cc1ccc(Nc2ncc3c(n2)N(C)C(=O)N(c2cc(C(=O)N[C@H](C(=O)N4CC[C@H]4C(=O)NC(C)(C)C(=O)N[C@@H](CC(C)C)C(=O)N(C)C)C(C)C)ccc2C)C3)cn1 [7k, (S)-N-(1-(((S)-1-(dimethylamino)-4-methyl-1-oxopentan-2-yl)amino)-2-methyl-1-oxopropan-2-yl)-1-((4-methyl-3-(1-methyl-7-((6-methylpyridin-3-yl)amino)-2-oxo-1,4-dihydropyrimido[4,5-d]pyrimidin-3(2H)-yl)benzoyl)-L-valyl)azetidine-2-carboxamide] (X1-V[Aze][Aib]L-NMe2) | 921 nM | 302 nM | > 10 fold | – |
| Cc1ccc(Nc2ncc3c(n2)N(C)C(=O)N(c2cc(NC(=O)c4ccc5c(c4)N(CC(=O)NCc4ccccc4)C(=O)[C@H](CC(C)C)N=C5c4ccccc4)ccc2C)C3)cn1 [11o, (S)-1-(2-(benzylamino)-2-oxoethyl)-3-isobutyl-N-(4-methyl-3-(1-methyl-7-((6-methylpyridin-3-yl)amino)-2-oxo-1,4-dihydropyrimido[4,5-d]pyrimidin-3(2H)-yl)phenyl)-2-oxo-5-phenyl-2,3-dihydro-1H-benzo[e][1,4]diazepine-8-carboxamide] | 87.5 nM | 27.8 nM | – | – |
| Cc1ccc(Nc2ncc3c(n2)N(C)C(=O)N(c2cc(C(=O)NCC(=O)N4CCC[C@H]4C(=O)NC(C)(C)C(=O)N[C@@H](CC(C)C)C(=O)N(C)C)ccc2C)C3)cn1 [7r, (S)-N-(1-(((S)-1-(dimethylamino)-4-methyl-1-oxopentan-2-yl)amino)-2-methyl-1-oxopropan-2-yl)-1-((4-methyl-3-(1-methyl-7-((6-methylpyridin-3-yl)amino)-2-oxo-1,4-dihydropyrimido[4,5-d]pyrimidin-3(2H)-yl)benzoyl)glycyl)pyrrolidine-2-carboxamide] (X1-GP[Aib]L-NMe2) | 577 nM | 216 nM | – | – |
| Cc1ccc(Nc2ncc3c(n2)N(C)C(=O)N(c2cc(C(=O)N[C@@H](CC(C)C)C(=O)N4CCC[C@H]4C(=O)NC(C)(C)C(=O)N[C@@H](CC(C)C)C(=O)N(C)C)ccc2C)C3)cn1 [7q, (S)-N-(1-(((S)-1-(dimethylamino)-4-methyl-1-oxopentan-2-yl)amino)-2-methyl-1-oxopropan-2-yl)-1-((4-methyl-3-(1-methyl-7-((6-methylpyridin-3-yl)amino)-2-oxo-1,4-dihydropyrimido[4,5-d]pyrimidin-3(2H)-yl)benzoyl)-L-leucyl)pyrrolidine-2-carboxamide] (X1-LP[Aib]L-NMe2) | 174 nM | 15.4 nM | – | > 10 fold |
| Cc1ccc(Nc2ncc3c(n2)N(C)C(=O)N(c2cc(C(=O)N[C@H](C(=O)N4CCC[C@H]4C(=O)NCC(=O)N[C@@H](CC(C)C)C(=O)N(C)C)C(C)C)ccc2C)C3)cn1 [7g, (S)-N-(2-(((S)-1-(dimethylamino)-4-methyl-1-oxopentan-2-yl)amino)-2-oxoethyl)-1-((4-methyl-3-(1-methyl-7-((6-methylpyridin-3-yl)amino)-2-oxo-1,4-dihydropyrimido[4,5-d]pyrimidin-3(2H)-yl)benzoyl)-L-valyl)pyrrolidine-2-carboxamide] (X1-VPGL-NMe2) | 1370 nM | 40.2 nM | – | – |
| Cc1ccc(Nc2ncc3c(n2)N(C)C(=O)N(c2cc(C(=O)N[C@H](C(=O)N4CCC[C@@H]4C(=O)N[C@H](C(=O)N[C@H](C)c4ccccc4)C(C)C)C(C)C)ccc2C)C3)cn1 [7v, (R)-N-((S)-3-methyl-1-oxo-1-(((R)-1-phenylethyl)amino)butan-2-yl)-1-((4-methyl-3-(1-methyl-7-((6-methylpyridin-3-yl)amino)-2-oxo-1,4-dihydropyrimido[4,5-d]pyrimidin-3(2H)-yl)benzoyl)-L-valyl)pyrrolidine-2-carboxamide] | 5630 nM | 403 nM | – | – |
| CCC[C@H](NC(=O)c1ccc(C)c(N2Cc3cnc(Nc4ccc(C)nc4)nc3N(C)C2=O)c1)C(=O)N1CCC[C@H]1C(=O)NC(C)(C)C(=O)N[C@@H](CC(C)C)C(=O)N(C)C [7t, (S)-N-(1-(((S)-1-(dimethylamino)-4-methyl-1-oxopentan-2-yl)amino)-2-methyl-1-oxopropan-2-yl)-1-((S)-2-(4-methyl-3-(1-methyl-7-((6-methylpyridin-3-yl)amino)-2-oxo-1,4-dihydropyrimido[4,5-d]pyrimidin-3(2H)-yl)benzamido)pentanoyl)pyrrolidine-2-carboxamide] (X1-[Nva]P[Aib]L-NMe2) | 477 nM | 70.8 nM | – | – |
| CC[C@H](C)[C@H](NC(=O)c1ccc(C)c(N2Cc3cnc(Nc4ccc(C)nc4)nc3N(C)C2=O)c1)C(=O)N1CCC[C@H]1C(=O)NC(C)(C)C(=O)N[C@@H](CC(C)C)C(=O)N(C)C [7p, (S)-N-(1-(((S)-1-(dimethylamino)-4-methyl-1-oxopentan-2-yl)amino)-2-methyl-1-oxopropan-2-yl)-1-((4-methyl-3-(1-methyl-7-((6-methylpyridin-3-yl)amino)-2-oxo-1,4-dihydropyrimido[4,5-d]pyrimidin-3(2H)-yl)benzoyl)-L-isoleucyl)pyrrolidine-2-carboxamide] (X1-IP[Aib]L-NMe2) | 329 nM | 55.6 nM | – | – |
